Test results reported in patent publication US4742058A, “Polyprenyl compound, process for the production thereof and drug containing the same” (Eisai Co., Ltd., priority 1982, dated 1988).

How the values were obtained:
[1] = system: platelet aggregation provoked by PAF (washed rabbit platelets); assay: Anti-PAF activity (inhibition of PAF-provoked platelet aggregation in washed platelets, nephelometry); format: cell-based; conditions: Oryctolagus cuniculus, PAF 30 ng/ml, read-out: Inhibition rate PAF
Procedure: (a) Preparation of washed platelet suspension (hereinafter referred to as W.P.)
(§1) A blood sample was collected from a carotid artery of a male rabbit weighing 2.5 kg, while adding thereto one volume of a 3.13% sodium citrate solution per 9 volumes of blood as a […]. The resulting blood was centrifuged at 200 xg for 20 minutes to separate out platelet-rich plasma (hereinafter referred to as PRP). This PRP was centrifuged at 1,000 xg for 15 minutes to separate the platelets from the plasma. The deposited platelets were washed twice with a Tyrode solution (Tyrode-Ca^++), from which Ca^++ had been removed and to which 1% bovine serum albumin (BSA) had been added, such that 9×10^5 platelets per μl were finally suspended in the Tyrode solution.
(b) Preparation of specimens and PAF
Specimens were dissolved or suspended in a physiological saline. PAF was dissolved in a Tyrode solution containing 1% BSA. PAF synthesized from D-mannitol in accordance with a method disclosed by J. J. Godfroid et al was used (FEBS Letters 116, 161-164, 1980).
(c) Measurement of platelet aggregation
(§2) Platelet aggregation measurements were conducted according to nephelometry described by Born et al using a platelet aggregation meter manufactured by Schenko Co. Specimen solutions having various concentrations of test compounds and 0.25 ml of W.P. were subjected to preincubation at 37° C. for 4 minutes, and then PAF was added thereto to give a final PAF concentration of 30 ng/ml to provoke platelet aggregation. The transmittance of the W.P. before aggregation, that is, before the addition of the aggregation provoking agent, was rated as 0, and the transmittance of the Tyrode solution was rated as 100. After the addition of the PAF solution to the W.P., light transmittance increased as aggregation proceeded. The value of the light transmittance at the time when the aggregation had proceeded to a maximum was rated as the maximum aggregation (hereinafter referred to as MA) which was used as an index of the degree of aggregation.
(§3) The inhibition rate was calculated according to the following equation. The aggregation in a W.P.-containing physiological saline solution free of test compound, as a control, was rated as 0% aggregation inhibition. [formula] wherein M.A. Control: maximum aggregation after platelet aggregation in PAF was provoked, after the addition of physiological saline.
M.A. Sample: maximum aggregation after platelet aggregation in PAF was provoked, after the addition of the test compound.

[2] = system: platelet aggregation provoked by bovine thrombin (washed rabbit platelets); assay: Antithrombic activity (inhibition of thrombin-provoked platelet aggregation); format: cell-based; conditions: Oryctolagus cuniculus, bovine thrombin 0.2 units/ml, read-out: Inhibition rate Thrombin (%)
Procedure: as §1, §2, §3
(2) Antithrombic activity
The measurement of the antithrombic activity was conducted in the same manner as described above, except that bovine thrombin at a final concentration of 0.2 units/ml was used as the platelet aggregation provoking agent in place of PAF.

Row | Compound | inhibition at 50 µM [1] [%] | inhibition at 50 µM [2] [%] | inhibition at 20 µM [1] [%] | inhibition at 20 µM [2] [%]
1 | CC(C)=CCC/C(C)=C/CC/C(C)=C/CC/C(C)=C/C(=O)N(CCO)CCO | 76.4 |  |  | 
2 | CC(C)=CCC/C(C)=C/CCC(C)CC(=O)NCCO (centres unmarked) | 31.4 |  |  | 
3 | CC(C)=CCC/C(C)=C/CC/C(C)=C/CC/C(C)=C/CC/C(C)=C/C(=O)NCCO | 22.7 |  |  | 
4 | CC(C)=CCC/C(C)=C/CC/C(C)=C/C(=O)NCCO | 18.7 |  |  | 
5 | CC(C)=CCC/C(C)=C/CC/C(C)=C/CC/C(C)=C/C(=O)N1CCCC(O)C1 (centres unmarked) | 27.4 | 19.2 |  | 
6 | CC(C)=CCC/C(C)=C/CC/C(C)=C/CC/C(C)=C/C(=O)N1CCCCC1CO (centres unmarked) | 34.4 | 27.4 |  | 
7 | CCN1CCCC(NC(=O)/C=C(\C)CC/C=C(\C)CC/C=C(\C)CCC=C(C)C)C1 (centres unmarked) | 80.3 | 24.2 |  | 
8 | CC(C)CCCC(C)Cc1ccc(C(=O)NCCO)cc1 (centres unmarked) |  |  | 57.8 | 
9 | CC(C)CCCC(C)Cc1ccc(C(=O)N(CCN(C)C)CCN(C)C)cc1 (centres unmarked) |  |  | 59.4 | 
10 | CC(C)CCCC(C)CCCc1ccc(C(C)CC(=O)N(CCN(C)C)CCN(C)C)cc1 (centres unmarked) | 82.6 |  | 57.8 | 
11 | CC(=CC(=O)NCCO)c1ccc(CCCC(C)CCCC(C)C)cc1 (centres unmarked) |  |  | 55.9 | 
12 | CC(=CC(=O)N(CCN(C)C)CCN(C)C)c1ccc(CCCC(C)CCCC(C)C)cc1 (centres unmarked) | 82.2 |  | 63.2 | 
13 | CC(C)CCCC(C)CCCC(C)Cc1ccc(C(=O)N(CCN(C)C)CCN(C)C)c(F)c1 (centres unmarked) |  |  | 64.9 | 
14 | CC(C)CCCC(C)CCCC(C)Cc1ccc(C(=O)N(CCN(C)C)CCN(C)C)c2ccccc12 (centres unmarked) |  |  | 59.3 | 
15 | CC(C)CCCC(C)CCCC(C)Cc1cccc2c(C(=O)N(CCN(C)C)CCN(C)C)cccc12 (centres unmarked) |  |  | 58.3 | 
16 | CC(C)CCCC(C)CCCC(C)Cc1ccc(C(=O)N(CCN(C)C)CCN(C)C)c2c1CCCC2 (centres unmarked) |  |  | 50.5 | 
17 | CC(C)=CCC/C(C)=C/CC/C(C)=C/CC/C(C)=C/CNC(=O)CN(C)C |  |  | 60.4 | 
18 | CC(C)=CCC/C(C)=C/CC/C(C)=C/CC/C(C)=C/CNC(=O)CCN |  |  | 59.1 | 
19 | CC(C)=CCC/C(C)=C/CC/C(C)=C/CC/C(C)=C/CNCCN(C)C |  |  | 37.1 | 
20 | CC(C)=CCC/C(C)=C/CC/C(C)=C/CC/C(C)=C/C(=O)NCCN(C)C |  |  | 74.3 | 
21 | CC(C)=CCC/C(C)=C/CC/C(C)=C/CC/C(C)=C/C(=O)N(CCN(C)C)CCN(C)C |  |  | 88.7 | 76.4
22 | CC(C)=CCC/C(C)=C/CC/C(C)=C/c1ccc(C(=O)NCCN(C)C)cc1 |  |  | 73.5 | 34.2
23 | CC(C)CCCC(C)CCCC(C)Cc1ccc(C(=O)NCCN(C)C)cc1 (centres unmarked) |  |  | 80.6 | 70.3
24 | CC(C)=CCC/C(C)=C/CC/C(C)=C/c1ccc(C(=O)N(CCN(C)C)CCN(C)C)cc1 |  |  | 93.6 | 70.6
25 | CC(C)CCCC(C)CCCC(C)Cc1ccc(C(=O)N(CCN(C)C)CCN(C)C)cc1 (centres unmarked) |  |  | 74.7 | 78.8
